These molecules were tested against T1, PDE7 (type VII phosphodiesterase) (Homo sapiens, UniProt Q13946) (assay: PDE7 inhibiting activity (3H-cAMP hydrolysis, active fraction from MOLT-4 cells)). Settings: PDE7 fraction from MOLT-4 cells, 0.064 μM cAMP, 10 μM rolipram present, 2 hours at 25° C.; read-out: IC50 values for phosphodiesterase inhibiting activities (PDE7).
T1 construct: endogenous in cells; host or cells: MOLT-4 (ATCC CRL-1582), soluble fraction, HiTrapQ anion-exchange fraction
Format: biochemical
Protocol: To evaluate the compounds of the present invention for the ability to suppress PDE7 (type VII phosphodiesterase), the method of Biochemical Pharmacol. 48(6), 1219-1223 (1994) was partially modified to perform the following assay:
1) PDE7 (type VII phosphodiesterase) active fraction was obtained. That is, human acute lymphoblastoid lymphoma T cell strain MOLT-4 (purchasable from ATCC under ATCC No. CRL-1582) was cultured in RPMI1640 medium containing 10% fetal bovine serum to obtain 5×10^8 MOLT4 cells. The cells were harvested by centrifugation, and suspended in 10 ml of buffer A (25 mM tris-HCl, 5 mM 2-mercaptoethanol, 2 mM benzamidine, 2 mM EDTA, 0.1 mM 4-(2-aminoethyl)benzenesulfonyl hydrochloride, pH 7=7.5). The cells were homogenized in a Polytoron homogenizer, and centrifuged (4° C., 25,000 G, 10 min). The supernatant was further ultracentrifuged (4° C., 100,000 G, 60 min), and the resulting supernatant was filtered through a 0.2 μm filter to obtain a soluble fraction.
2) HiTrapQ column (5 ml×2) equilibrated with buffer A was charged with the resulting soluble fraction. Phosphodiesterase was eluted using 300 ml of buffer A containing a linear gradient solution of 0 to 0.8M sodium chloride to collect sixty 5 ml fractions. Each fraction was tested for cAMP metabolizing phosphodiesterase activity.
3) The test compounds at desired concentrations were each reacted for 2 hours at 25° C. in a reactant mixture containing 20 mM tris-HCl (pH 7.5), 1 mM MgCl2, 100 μM EDTA, 330 μg/ml bovine serum albumin, 4 μg/ml 5′-nucleotidase, 0.1 μCi^3H-cAMP (0.064 μM cAMP), 10 μM rolipram, and the type VII phosphodiesterase stored solution. QAE-Sephadex suspended in 10 mM HEPES-Na (pH 7.0) was added to the reaction mixture, and the mixture was allowed to stand for 5 minutes. Then, the supernatant was recovered, and QAE-Sephadex was further added, followed by allowing the mixture to stand for 5 minutes. Then, the resulting supernatant was measure for radioactivity.
4) IC50, as the concentration of the test compound that inhibited 50% of the metabolic activity of PDE7, was calculated for each of the compounds.

T1 sequence (Q13946 whole entry): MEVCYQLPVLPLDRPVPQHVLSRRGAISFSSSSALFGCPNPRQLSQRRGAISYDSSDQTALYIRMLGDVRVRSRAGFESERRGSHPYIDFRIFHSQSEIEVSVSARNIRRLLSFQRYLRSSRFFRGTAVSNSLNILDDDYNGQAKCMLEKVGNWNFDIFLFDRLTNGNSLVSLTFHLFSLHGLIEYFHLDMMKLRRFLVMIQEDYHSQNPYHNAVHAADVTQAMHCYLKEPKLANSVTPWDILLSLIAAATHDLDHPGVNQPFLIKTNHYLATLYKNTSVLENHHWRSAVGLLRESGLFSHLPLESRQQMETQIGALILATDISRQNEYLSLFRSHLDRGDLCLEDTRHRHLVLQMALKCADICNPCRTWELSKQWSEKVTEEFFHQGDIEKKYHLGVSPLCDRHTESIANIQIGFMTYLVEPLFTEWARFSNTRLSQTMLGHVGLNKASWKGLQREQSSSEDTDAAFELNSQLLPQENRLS

| SMILES | IC50 [nM] |
| --- | --- |
| Cc1nn(C2CCCCC2)c2c(=O)[nH]c(-c3ccc(N4CCN(C)CC4)cc3)nc12 [Example 7, 1-Cyclohexyl-3-methyl-5-[4-(4-methyl-1-piperazinyl)phenyl]-1,6-dihydro-7H-pyrazolo[4,3-d]pyrimidin-7-one] | ≤ 1000 |
| COc1cc([N+](=O)[O-])ccc1-c1nc2c(C)nn(C3CCCCC3)c2c(=O)[nH]1 [Example 8, 1-Cyclohexyl-5-(2-methoxy-4-nitrophenyl)-3-methyl-1,6-dihydro-7H-pyrazolo[4,3-d]pyrimidin-7-one] | ≤ 1000 |
| COc1cc(NC(C)=O)ccc1-c1nc2c(C)nn(C3CCCCC3)c2c(=O)[nH]1 [Example 10, N-[4-(1-cyclohexyl-3-methyl-7-oxo-6,7-dihydro-1H-pyrazolo[4,3-d]pyrimidin-5-yl)-3-methoxyphenyl]acetamide] | ≤ 1000 |
| Cc1nn(C2CCCCC2)c2c(=O)[nH]c(-c3ccc(N)cn3)nc12 [Example 11, 5-(5-Amino-2-pyridinyl)-1-cyclohexyl-3-methyl-1,6-dihydro-7H-pyrazolo[4,3-d]pyrimidin-7-one] | ≤ 1000 |
| CC(=O)Nc1ccc(-c2nc3c(C)nn(C4CCCCC4)c3c(=O)[nH]2)nc1 [Example 12, N-[6-(1-cyclohexyl-3-methyl-7-oxo-1H-pyrazolo[4,3-d]pyrimidin-5-yl)-3-pyridinyl]acetamide] | ≤ 1000 |
| CCOc1ccccc1-c1nc2c(C)nn(C3CCCCC3)c2c(=O)[nH]1 [Example 13, 1-Cyclohexyl-5-(2-ethoxyphenyl)-3-methyl-1,6-dihydro-7H-pyrazolo[4,3-d]pyrimidin-7-one] | ≤ 1000 |
| Cc1nn(C2CCCCC2)c2c(=O)[nH]c(-c3ccc(N4CCC(O)CC4)cc3)nc12 [Example 14, 1-Cyclohexyl-5-[4-(4-hydroxy-1-piperidinyl)phenyl]-3-methyl-1,6-dihydro-7H-pyrazolo[4,3-d]pyrimidin-7-one] | ≤ 1000 |
| COc1cc(N2CCN(C)CC2)ccc1-c1nc2c(C)nn(C3CCCCC3)c2c(=O)[nH]1 [Example 16, 1-Cyclohexyl-5-[2-methoxy-4-(4-methyl-1-piperazinyl)phenyl]-3-methyl-1,6-dihydro-7H-pyrazolo[4,3-d]pyrimidin-7-one] | ≤ 1000 |
| Cc1nn(C2CCCCC2)c2c(=O)[nH]c(-c3cc(Cl)ccn3)nc12 [Example 17, 5-(4-Chloro-2-pyridinyl)-1-cyclohexyl-3-methyl-1,6-dihydro-7H-pyrazolo[4,3-d]pyrimidin-7-one] | ≤ 1000 |
| COc1ccc(F)cc1-c1nc2c(C)nn(C3CCCCC3)c2c(=O)[nH]1 [Example 18, 1-Cyclohexyl-5-(5-fluoro-2-methoxyphenyl)-3-methyl-1,6-dihydro-7H-pyrazolo[4,3-d]pyrimidin-7-one] | ≤ 1000 |
| COc1ccccc1-c1nc2c(c(C3CCCCC3)nn2C)c(=O)[nH]1 [Example 24, 3-Cyclohexyl-6-(2-methoxyphenyl)-1-methyl-1,5-dihydro-4H-pyrazolo[3,4-d]pyrimidin-4-one] | ≤ 1000 |
| Cn1nc(C2CCCCC2)c2c(=O)[nH]c(-c3ccccn3)nc21 [Example 25, 3-Cyclohexyl-1-methyl-6-(2-pyridinyl)-1,5-dihydro-4H-pyrazolo[3,4-d]pyrimidin-4-one] | ≤ 1000 |
| COc1cc(N2CCC3(CC2)OCCO3)ccc1-c1nc2c(c(C3CCCCC3)nn2C)c(=O)[nH]1 [Example 29, 3-Cyclohexyl-6-[4-(1,4-dioxa-8-azaspiro[4,5]deca-8-yl)-2-methoxyphenyl]-1-methyl-1,5-dihydro-4H-pyrazolo[3,4-d]pyrimidin-4-one] | ≤ 1000 |
| COCCOc1ccc(-c2nc3c(c(C4CCCCC4)nn3C)c(=O)[nH]2)c(OC)c1 [Example 34, 3-Cyclohexyl-6-[2-methoxy-4-(2-methoxyethoxy)phenyl]-1-methyl-1,5-dihydro-4H-pyrazolo[3,4-d]pyrimidin-4-one] | ≤ 1000 |
| COc1cc(OCCO)ccc1-c1nc2c(c(C3CCCCC3)nn2C)c(=O)[nH]1 [Example 37, 3-Cyclohexyl-6-[4-(2-hydroxyethoxy)-2-methoxyphenyl]-1-methyl-1,5-dihydro-4H-pyrazolo[3,4-d]pyrimidin-4-one] | ≤ 1000 |
| COc1cc(O[C@@H]2CCOC2)ccc1-c1nc2c(c(C3CCCCC3)nn2C)c(=O)[nH]1 [Example 39, 3-Cyclohexyl-6-{2-methoxy-4-[(3R)-tetrahydro-3-furanyloxy]phenyl}-1-methyl-1,5-dihydro-4H-pyrazolo[3,4-d]pyrimidin-4-one] | ≤ 1000 |
| COc1cc(OCC(=O)O)ccc1-c1nc2c(c(C3CCCCC3)nn2C)c(=O)[nH]1 [Example 41, [4-(3-cyclohexyl-1-methyl-4-oxo-4,5-dihydro-1H-pyrazolo[3,4-d]pyrimidin-6-yl)-3-methoxyphenoxy]acetic acid] | ≤ 1000 |
| COc1cc(OC2CCN(C)CC2)ccc1-c1nc2c(c(C3CCCCC3)nn2C)c(=O)[nH]1 [Example 42, 3-Cyclohexyl-6-{2-methoxy-4-[(-methyl-4-piperidinyl)oxy]phenyl}-1-methyl-1,5-dihydro-4H-pyrazolo[3,4-d]pyrimidin-4-one monomaleate] | ≤ 1000 |

The remaining lines, values ahead:

| IC50 [nM] | SMILES |
| --- | --- |
| ≤ 1000 | Cc1nn(C2CCCCC2)c2c(=O)[nH]c(-c3ccccc3)nc12 [Example 1, 1-Cyclohexyl-3-methyl-5-phenyl-1,6-dihydro-7H-pyrazolo[4,3-d]pyrimidin-7-one] |
| ≤ 1000 | Cc1nn(C2CCCCC2)c2c(=O)[nH]c(-c3ccc([N+](=O)[O-])cc3)nc12 [Example 2, 1-Cyclohexyl-3-methyl-5-(4-nitrophenyl)-1,6-dihydro-7H-pyrazolo[4,3-d]pyrimidin-7-one] |
| ≤ 1000 | Cc1nn(C2CCCCC2)c2c(=O)[nH]c(-c3ccc(N)cc3)nc12 [Example 3, 5-(4-Aminophenyl)-1-cyclohexyl-3-methyl-1,6-dihydro-7H-pyrazolo[4,3-d]pyrimidin-7-one] |
| ≤ 1000 | CC(=O)Nc1ccc(-c2nc3c(C)nn(C4CCCCC4)c3c(=O)[nH]2)cc1 [Example 4, N-[4-(1-cyclohexyl-3-methyl-7-oxo-6,7-dihydro-1H-pyrazolo[4,3-d]pyrimidin-5-yl)phenyl]acetamide] |
| ≤ 1000 | COc1ccccc1-c1nc2c(C)nn(C3CCCCC3)c2c(=O)[nH]1 [Example 5, 1-Cyclohexyl-5-(2-methoxyphenyl)-3-methyl-1,6-dihydro-7H-pyrazolo[4,3-d]pyrimidin-7-one] |
| ≤ 1000 | Cc1nn(C2CCCCC2)c2c(=O)[nH]c(-c3ccccn3)nc12 [Example 6, 1-Cyclohexyl-3-methyl-5-(2-pyridinyl)-1,6-dihydro-7H-pyrazolo[4,3-d]pyrimidin-7-one] |
| ≤ 10 | COc1cc(N2CCN(C)CC2)ccc1-c1nc2c(c(C3CCCCC3)nn2C)c(=O)[nH]1 [Example 27, 3-Cyclohexyl-6-[2-methoxy-4-(4-methyl-1-piperazinyl)phenyl]-1-methyl-1,5-dihydro-4H-pyrazolo[3,4-d]pyrimidin-4-one] |
| ≤ 10 | COc1cc(N2CCN(C)CC2)ccc1-c1nc2c(c(C3CCCCC3)nn2C)c(=O)[nH]1 [Example 28, 3-Cyclohexyl-6-[2-methoxy-4-(4-methyl-1-piperazinyl)phenyl]-1-methyl-1,5-dihydro-4H-pyrazolo[3,4-d]pyrimidin-4-one monomethanesulfonate] |
| ≤ 10 | COc1cc(N2CCC(O)CC2)ccc1-c1nc2c(c(C3CCCCC3)nn2C)c(=O)[nH]1 [Example 31, 3-Cyclohexyl-6-[4-(4-hydroxy-1-piperidinyl)-2-methoxyphenyl]-1-methyl-1,5-dihydro-4H-pyrazolo[3,4-d]pyrimidin-4-one] |
| ≤ 10 | COc1cc(N2CCC(O)CC2)ccc1-c1nc2c(c(C3CCCCC3)nn2C)c(=O)[nH]1 [Example 32, 3-Cyclohexyl-6-[4-(4-hydroxy-1-piperidinyl)-2-methoxyphenyl]-1-methyl-1,5-dihydro-4H-pyrazolo[3,4-d]pyrimidin-4-one monomethanesulfonate] |
| ≤ 10 | COc1cc(O[C@H]2CCOC2)ccc1-c1nc2c(c(C3CCCCC3)nn2C)c(=O)[nH]1 [Example 38, 3-Cyclohexyl-6-{2-methoxy-4-[(3S)-tetrahydro-3-furanyloxy]phenyl}-1-methyl-1,5-dihydro-4H-pyrazolo[3,4-d]pyrimidin-4-one] |
| ≤ 10 | COc1cc(N)ccc1-c1nc2c(c(C3CCCCC3)nn2C)c(=O)[nH]1 [Example 44, 6-(4-Amino-2-methoxyphenyl)-3-cyclohexyl-1-methyl-1,5-dihydro-4H-pyrazolo[3,4-d]pyrimidin-4-one] |

From patent US7268128B2, “1,3,5-trisubstituted-5-phenyl and 5-pyridyl pyrazolopyrimidinone derivatives having PDE7 inhibiting action” (Ausbio Pharma Co., Ltd., priority 2001, dated 2007)
